Experimental data taken from ChEMBL document CHEMBL1201862, “PubChem BioAssay data set” (2004).
Calls of active or inactive are those of the source.

What was measured:
[1] = target: T1, Mannose-6-phosphate isomerase (Homo sapiens, UniProt P34949); test: phosphomannose isomerase inhibition – biochemical, fluorescence intensity, confirmation (AID 1535)
T1 sequence (P34949 whole entry): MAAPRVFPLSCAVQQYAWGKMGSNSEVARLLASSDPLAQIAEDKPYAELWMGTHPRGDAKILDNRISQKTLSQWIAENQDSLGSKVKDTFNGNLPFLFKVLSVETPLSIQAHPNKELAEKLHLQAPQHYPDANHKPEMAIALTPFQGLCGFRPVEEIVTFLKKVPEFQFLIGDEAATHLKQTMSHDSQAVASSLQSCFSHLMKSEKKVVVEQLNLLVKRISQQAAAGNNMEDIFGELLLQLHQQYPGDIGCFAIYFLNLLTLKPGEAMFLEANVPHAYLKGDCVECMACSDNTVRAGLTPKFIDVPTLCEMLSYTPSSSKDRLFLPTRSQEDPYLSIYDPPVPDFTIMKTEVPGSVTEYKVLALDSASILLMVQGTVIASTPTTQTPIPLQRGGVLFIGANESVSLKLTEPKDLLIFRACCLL

Phosphomannomutase 2 = Phosphomannomutase 2 (Homo sapiens, UniProt O15305); test: Counter screen SAR assay for PMM2 inhibitors via a fluorescence intensity assay. [Related pubchem assays (depositor defined):AID1545, AID1574]
[2] = target: T2, Short transient receptor potential channel 4 (Mus musculus, UniProt Q9QUQ5); test: potentiation of DAMGO-evoked TRPC4 calcium signal – cell-based, HEK293 TRPC4/mu-opioid, Fluo-4 calcium, EC20 DAMGO, dose response (AID 434941); format: functional
T2 sequence (Q9QUQ5 whole entry): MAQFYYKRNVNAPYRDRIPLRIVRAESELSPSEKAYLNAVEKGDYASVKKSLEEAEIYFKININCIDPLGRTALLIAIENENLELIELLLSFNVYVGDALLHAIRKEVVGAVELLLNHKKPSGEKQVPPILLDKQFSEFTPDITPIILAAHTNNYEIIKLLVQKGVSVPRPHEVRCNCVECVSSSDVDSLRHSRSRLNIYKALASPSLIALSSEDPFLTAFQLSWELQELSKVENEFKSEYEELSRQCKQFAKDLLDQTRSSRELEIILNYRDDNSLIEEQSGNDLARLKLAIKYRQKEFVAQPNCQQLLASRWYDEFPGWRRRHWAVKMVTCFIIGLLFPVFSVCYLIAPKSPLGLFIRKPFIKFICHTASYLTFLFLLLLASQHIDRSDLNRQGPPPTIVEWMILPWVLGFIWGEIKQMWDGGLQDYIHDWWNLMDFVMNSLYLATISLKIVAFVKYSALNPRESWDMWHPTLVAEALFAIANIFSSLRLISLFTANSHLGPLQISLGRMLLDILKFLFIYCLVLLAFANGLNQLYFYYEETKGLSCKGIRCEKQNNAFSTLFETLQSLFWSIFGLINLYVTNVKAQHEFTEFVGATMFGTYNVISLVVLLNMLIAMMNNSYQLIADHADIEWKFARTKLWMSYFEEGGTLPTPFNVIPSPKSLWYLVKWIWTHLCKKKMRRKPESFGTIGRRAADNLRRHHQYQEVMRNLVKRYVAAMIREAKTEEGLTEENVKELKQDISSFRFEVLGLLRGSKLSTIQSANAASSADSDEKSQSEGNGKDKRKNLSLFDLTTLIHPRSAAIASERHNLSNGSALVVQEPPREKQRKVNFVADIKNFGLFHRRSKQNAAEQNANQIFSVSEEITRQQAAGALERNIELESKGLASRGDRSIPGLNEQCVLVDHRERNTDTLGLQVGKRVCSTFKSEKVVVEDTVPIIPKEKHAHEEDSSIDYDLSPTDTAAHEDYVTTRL

SUMO-activating enzyme [3] = target: T3, SUMO-activating enzyme (Homo sapiens, UniProt Q9UBT2); test: blockers of UBC9-mediated SUMO conjugation – biochemical, AlphaScreen, SUMOylation inhibitor project, confirmation (AID 2018); format: functional
T3 sequence (Q9UBE0 whole entry): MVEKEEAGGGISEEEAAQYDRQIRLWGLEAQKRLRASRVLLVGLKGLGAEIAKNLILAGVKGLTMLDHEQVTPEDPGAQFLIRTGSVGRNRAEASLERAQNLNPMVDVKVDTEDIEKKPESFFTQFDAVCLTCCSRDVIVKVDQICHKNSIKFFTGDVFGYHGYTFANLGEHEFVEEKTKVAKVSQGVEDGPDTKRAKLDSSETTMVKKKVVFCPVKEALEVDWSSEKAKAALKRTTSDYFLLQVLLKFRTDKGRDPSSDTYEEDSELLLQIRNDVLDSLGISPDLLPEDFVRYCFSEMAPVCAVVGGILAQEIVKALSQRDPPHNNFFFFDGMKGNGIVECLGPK
T3 sequence (Q9UBT2 whole entry): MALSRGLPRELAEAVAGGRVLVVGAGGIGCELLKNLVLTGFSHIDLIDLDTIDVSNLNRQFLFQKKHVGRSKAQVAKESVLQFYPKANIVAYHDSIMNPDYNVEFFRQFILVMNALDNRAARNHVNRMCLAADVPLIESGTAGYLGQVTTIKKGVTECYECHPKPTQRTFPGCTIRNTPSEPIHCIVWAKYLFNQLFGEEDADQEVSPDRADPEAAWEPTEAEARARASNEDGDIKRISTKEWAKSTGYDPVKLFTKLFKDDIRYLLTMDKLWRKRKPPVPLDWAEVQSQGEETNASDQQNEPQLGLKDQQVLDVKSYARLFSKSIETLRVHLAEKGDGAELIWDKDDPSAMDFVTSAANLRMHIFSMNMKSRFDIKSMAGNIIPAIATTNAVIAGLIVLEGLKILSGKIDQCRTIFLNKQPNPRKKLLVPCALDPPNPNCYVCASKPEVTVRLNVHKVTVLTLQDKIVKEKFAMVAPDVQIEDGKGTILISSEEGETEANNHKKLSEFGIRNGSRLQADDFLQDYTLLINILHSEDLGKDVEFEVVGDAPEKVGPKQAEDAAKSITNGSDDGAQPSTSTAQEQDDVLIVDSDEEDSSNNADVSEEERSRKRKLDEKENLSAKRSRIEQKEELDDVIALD

SUMO-activating enzyme [4] = target: T3, SUMO-activating enzyme; test: blockers of SAE1/SAE2–UBC9 SUMO transfer – biochemical, HTRF, uHTS, primary screen (AID 2006); format: protein-complex assay
[5] = viability of uninfected HEp-2 cells – cell-based, HTS, cytotoxicity control for RSV inhibitor project, dose response (AID 2410); format: functional; conditions: human respiratory syncytial virus
[6] = blockade of melanocortin 4 receptor signaling – cell-based, plate reader, cherry pick, counter-screen for LGR2 antagonist project, dose response (AID 743444); format: functional;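 note: transfected HEK 293 cells stimulated with alpha-MSH peptide; potency of inhibitors of the alpha-MSH evoked signal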
[7] = luciferase reporter signal suppression in cells – H4 neuroglioma cells, luminescence, dose response (AID 1990); format: functional, cell-based
[8] = viability loss in HEK293 cells – cell-based, plate reader, cherry-picked samples, cytotoxicity control, dose response (AID 743446); format: functional
[9] = target: T4, Ubiquitin-conjugating enzyme E2 N (Homo sapiens, UniProt P61088); format: functional
T4 sequence (P61088 whole entry): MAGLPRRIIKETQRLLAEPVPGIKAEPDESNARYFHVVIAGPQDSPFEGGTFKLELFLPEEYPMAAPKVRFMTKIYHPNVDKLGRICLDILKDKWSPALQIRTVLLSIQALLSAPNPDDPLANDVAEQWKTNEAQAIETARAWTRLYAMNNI

[10] = A549 cell cytotoxicity, dose response, cytotoxicity control, plate reader, cherry-pick, antagonist series (AID 743412); format: functional, cell-based
[11] = blockers of bursicon-stimulated LGR2 cAMP reporter – cell-based, HEK293, CRE-luciferase reporter, cherry pick, set 2, dose response (AID 743343); format: functional;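 note: transfected cells were stimulated with diluted bursicon conditioned medium after compound addition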
[12] = HEK-293T viability loss after treatment – luminescence, T-cell screen hits, cytotoxicity control for TCR NF-kB inhibitor project, dose response (AID 489026); format: functional, cell-based;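 note: cells exposed to compound about 14 hours before the viability readout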
HEK293 = test: EBV LMP1 TES2 canonical NF-kB signalling blockers – cell-based, HEK293, luciferase, cherry-pick, dose response (AID 588343); format: functional; conditions: Homo sapiens
Bcl-2-related protein A1 = target: T5, Bcl-2-related protein A1 (Mus musculus, UniProt Q07440); format: functional;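 note: confirmatory dose–response counterscreen on Bfl-1, used to check hits from a UBC13 polyubiquitin inhibitor campaign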
T5 sequence (Q07440 whole entry): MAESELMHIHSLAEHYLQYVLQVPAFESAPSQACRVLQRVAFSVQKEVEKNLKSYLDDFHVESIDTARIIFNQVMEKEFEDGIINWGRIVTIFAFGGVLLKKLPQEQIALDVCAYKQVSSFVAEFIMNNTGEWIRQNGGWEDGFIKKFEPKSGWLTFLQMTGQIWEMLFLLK

[13] = alpha-synuclein stem-loop luciferase translation blockers – H4 neuroglioma cells, luminescence, confirmation (AID 1988); format: functional, cell-based
INS1 = test: INS-1E survival protection against cytokine death – cell-based, luminescence, retest, dose response (AID 449756); format: functional; conditions: Rattus norvegicus;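 note: cell death triggered by IL-1 beta plus TNF-alpha plus IFN-gamma mixture; protective hits raise ATP signal compared with cytokine alone wells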
[14] = Trypanosoma cruzi growth suppression in host cells – NIH3T3 host cells, beta-gal luminescence, confirmation (AID 2044); format: functional, cell-based;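 note: intracellular parasites grown in NIH/3T3 mouse fibroblasts as host cells; luminescent beta-galactosidase reporter signal from transgenic T. cruzi replicating inside host cells; inhibitors lower the luminescence signal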
[15] = target: T6, Rac GTPase-activating protein 1 (Homo sapiens, UniProt Q9H0H5); test: blockers of MgcRacGAP-driven Rac1 GTP hydrolysis – biochemical, ADP Hunter fluorescence, primary and confirmatory, confirmation (AID 624330); format: functional
T6 sequence (Q9H0H5 whole entry): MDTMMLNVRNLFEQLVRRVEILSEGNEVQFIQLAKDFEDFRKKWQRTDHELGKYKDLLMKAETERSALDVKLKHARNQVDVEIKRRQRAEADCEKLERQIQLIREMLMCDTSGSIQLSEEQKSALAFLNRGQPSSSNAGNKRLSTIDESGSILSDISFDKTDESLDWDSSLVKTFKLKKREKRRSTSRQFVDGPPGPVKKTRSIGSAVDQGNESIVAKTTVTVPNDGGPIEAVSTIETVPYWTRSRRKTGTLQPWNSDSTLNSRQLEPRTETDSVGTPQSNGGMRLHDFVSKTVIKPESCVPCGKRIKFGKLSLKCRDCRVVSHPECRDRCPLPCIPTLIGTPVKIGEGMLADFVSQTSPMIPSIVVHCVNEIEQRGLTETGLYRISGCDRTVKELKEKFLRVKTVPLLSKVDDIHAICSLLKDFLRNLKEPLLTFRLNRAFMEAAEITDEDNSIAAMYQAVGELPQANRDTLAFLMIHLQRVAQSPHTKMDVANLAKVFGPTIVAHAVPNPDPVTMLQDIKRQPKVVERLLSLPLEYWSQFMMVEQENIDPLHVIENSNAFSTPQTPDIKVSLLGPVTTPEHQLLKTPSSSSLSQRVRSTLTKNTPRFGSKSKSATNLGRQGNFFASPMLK

[16] = target: T7, Small ubiquitin-related modifier 1 (Homo sapiens, UniProt P63165); test: SUMO1 protein interaction blockers, potency – biochemical, fluorescence polarization, uHTS hits, dose response (AID 624382); format: functional; conditions: read-out: IC50_Mean
T7 sequence (P63165 whole entry): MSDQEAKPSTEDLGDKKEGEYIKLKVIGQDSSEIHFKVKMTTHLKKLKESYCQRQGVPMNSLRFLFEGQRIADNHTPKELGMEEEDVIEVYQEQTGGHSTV

[17] = NIH3T3 cell viability loss – ATP luminescence, mouse fibroblasts, counter-screen, dose response (AID 2010); format: functional, cell-based;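 note: cells exposed to compound for about 90 hours before reading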
[18] = target: Cystic fibrosis transmembrane conductance regulator/Golgi-associated PDZ and coiled-coil motif-containing protein (Homo sapiens, UniProt P13569+Q9HD26); test: potency against CAL PDZ-peptide interaction – biochemical, fluorescence polarization, Cerulean-tagged CAL PDZ, cherry-picks, dose response (AID 504773)
Sequence of Cystic fibrosis transmembrane conductance regulator/Golgi-associated PDZ and coiled-coil motif-containing protein (P13569 whole entry, other chains not shown, the tested form may be a part): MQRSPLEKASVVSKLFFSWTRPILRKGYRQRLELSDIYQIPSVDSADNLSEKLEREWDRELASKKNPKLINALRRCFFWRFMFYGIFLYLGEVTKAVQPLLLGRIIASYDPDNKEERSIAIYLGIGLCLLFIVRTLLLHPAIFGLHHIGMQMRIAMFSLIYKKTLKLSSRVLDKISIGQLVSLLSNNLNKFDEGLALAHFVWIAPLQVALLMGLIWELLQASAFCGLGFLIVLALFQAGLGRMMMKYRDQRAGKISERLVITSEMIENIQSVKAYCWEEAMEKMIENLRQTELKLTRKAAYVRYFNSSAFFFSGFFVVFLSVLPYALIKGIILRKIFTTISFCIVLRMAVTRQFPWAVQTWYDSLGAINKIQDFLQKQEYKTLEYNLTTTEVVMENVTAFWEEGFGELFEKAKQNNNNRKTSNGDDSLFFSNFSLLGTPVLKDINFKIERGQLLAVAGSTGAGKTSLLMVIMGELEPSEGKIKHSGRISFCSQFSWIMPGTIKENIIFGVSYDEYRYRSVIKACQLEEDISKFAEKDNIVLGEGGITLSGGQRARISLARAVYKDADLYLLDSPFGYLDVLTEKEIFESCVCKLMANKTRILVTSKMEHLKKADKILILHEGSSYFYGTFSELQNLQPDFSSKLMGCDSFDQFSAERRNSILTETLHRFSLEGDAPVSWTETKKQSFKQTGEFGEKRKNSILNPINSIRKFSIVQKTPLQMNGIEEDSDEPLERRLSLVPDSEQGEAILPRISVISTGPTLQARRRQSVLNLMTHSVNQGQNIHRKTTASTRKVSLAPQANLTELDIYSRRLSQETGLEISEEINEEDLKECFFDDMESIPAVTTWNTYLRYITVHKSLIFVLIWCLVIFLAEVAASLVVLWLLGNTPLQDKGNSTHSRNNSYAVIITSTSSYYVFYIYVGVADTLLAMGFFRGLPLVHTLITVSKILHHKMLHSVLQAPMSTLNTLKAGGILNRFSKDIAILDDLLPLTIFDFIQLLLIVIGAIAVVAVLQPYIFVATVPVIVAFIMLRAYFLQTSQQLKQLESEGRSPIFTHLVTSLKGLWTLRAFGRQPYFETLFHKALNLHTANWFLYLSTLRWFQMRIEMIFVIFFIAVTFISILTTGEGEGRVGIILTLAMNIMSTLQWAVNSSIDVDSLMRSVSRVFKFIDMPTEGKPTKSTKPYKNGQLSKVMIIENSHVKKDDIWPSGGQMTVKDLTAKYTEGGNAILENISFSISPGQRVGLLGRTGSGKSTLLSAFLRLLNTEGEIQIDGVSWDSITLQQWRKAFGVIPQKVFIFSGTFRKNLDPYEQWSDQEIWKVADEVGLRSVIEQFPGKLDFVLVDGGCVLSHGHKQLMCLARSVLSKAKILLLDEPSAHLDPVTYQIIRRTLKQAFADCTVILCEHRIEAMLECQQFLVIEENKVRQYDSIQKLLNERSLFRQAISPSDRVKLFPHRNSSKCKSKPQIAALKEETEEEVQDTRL

[19] = target: T8, Type-1 angiotensin II receptor (Homo sapiens, UniProt P30556); test: agonist activity at AGTR1 – cell-based, uHTS hits, selectivity assay for APJ receptor agonist project, dose response (AID 488865); format: functional;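 note: beta-arrestin recruitment to AT1 measured by enzyme fragment complementation luminescence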
T8 sequence (P30556 whole entry): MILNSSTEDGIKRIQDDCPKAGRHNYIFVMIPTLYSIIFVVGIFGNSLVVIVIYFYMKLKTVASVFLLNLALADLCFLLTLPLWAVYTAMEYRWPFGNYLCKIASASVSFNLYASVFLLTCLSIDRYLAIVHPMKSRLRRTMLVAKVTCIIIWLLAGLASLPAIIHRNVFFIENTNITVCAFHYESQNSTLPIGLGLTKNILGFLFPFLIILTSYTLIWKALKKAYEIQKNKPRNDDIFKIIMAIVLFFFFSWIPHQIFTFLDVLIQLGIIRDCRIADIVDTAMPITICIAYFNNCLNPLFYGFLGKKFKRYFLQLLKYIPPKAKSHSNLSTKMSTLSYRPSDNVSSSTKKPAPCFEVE

[20] = microbe, parasite or virus in culture; format: functional; conditions: Mycobacterium tuberculosis
[21] = Luminescence Cell-Based Dose Response HTS to Identify Inhibitors of 5'UTR Stem-Loop Driven Prion Protein mRNA Translation in H4 Neuroglioblastoma Cells. [Related pubchem assays: 1827 (Project Summary), 1813 (Primary HTS)]; format: functional
[22] = toxicity toward HepG2 liver cells – cell-based, plate reader, cherry-pick, antagonist series, cytotoxicity control, dose response (AID 743416); format: functional
[23] = target: T4, Ubiquitin-conjugating enzyme E2 N; format: functional; remark: listed apart in the source
[24] = target: T7, Small ubiquitin-related modifier 1; test: SUMO1 protein-protein binding blockers, potency – biochemical, FRET, dose response (AID 624383); format: functional; conditions: read-out: IC50_Mean
[25] = viability loss in HeLa cells – cytotoxicity control for MgcRacGAP inhibitor project, dose response (AID 624300); format: functional
[26] = target: NACHT, LRR and PYD domains-containing protein 1 (Homo sapiens, UniProt Q9C000); test: NALP1 inhibitors in yeast, dose response, luminescent (AID 488860); format: functional
Sequence of NACHT, LRR and PYD domains-containing protein 1 (Q9C000 1-1212 limits assumed): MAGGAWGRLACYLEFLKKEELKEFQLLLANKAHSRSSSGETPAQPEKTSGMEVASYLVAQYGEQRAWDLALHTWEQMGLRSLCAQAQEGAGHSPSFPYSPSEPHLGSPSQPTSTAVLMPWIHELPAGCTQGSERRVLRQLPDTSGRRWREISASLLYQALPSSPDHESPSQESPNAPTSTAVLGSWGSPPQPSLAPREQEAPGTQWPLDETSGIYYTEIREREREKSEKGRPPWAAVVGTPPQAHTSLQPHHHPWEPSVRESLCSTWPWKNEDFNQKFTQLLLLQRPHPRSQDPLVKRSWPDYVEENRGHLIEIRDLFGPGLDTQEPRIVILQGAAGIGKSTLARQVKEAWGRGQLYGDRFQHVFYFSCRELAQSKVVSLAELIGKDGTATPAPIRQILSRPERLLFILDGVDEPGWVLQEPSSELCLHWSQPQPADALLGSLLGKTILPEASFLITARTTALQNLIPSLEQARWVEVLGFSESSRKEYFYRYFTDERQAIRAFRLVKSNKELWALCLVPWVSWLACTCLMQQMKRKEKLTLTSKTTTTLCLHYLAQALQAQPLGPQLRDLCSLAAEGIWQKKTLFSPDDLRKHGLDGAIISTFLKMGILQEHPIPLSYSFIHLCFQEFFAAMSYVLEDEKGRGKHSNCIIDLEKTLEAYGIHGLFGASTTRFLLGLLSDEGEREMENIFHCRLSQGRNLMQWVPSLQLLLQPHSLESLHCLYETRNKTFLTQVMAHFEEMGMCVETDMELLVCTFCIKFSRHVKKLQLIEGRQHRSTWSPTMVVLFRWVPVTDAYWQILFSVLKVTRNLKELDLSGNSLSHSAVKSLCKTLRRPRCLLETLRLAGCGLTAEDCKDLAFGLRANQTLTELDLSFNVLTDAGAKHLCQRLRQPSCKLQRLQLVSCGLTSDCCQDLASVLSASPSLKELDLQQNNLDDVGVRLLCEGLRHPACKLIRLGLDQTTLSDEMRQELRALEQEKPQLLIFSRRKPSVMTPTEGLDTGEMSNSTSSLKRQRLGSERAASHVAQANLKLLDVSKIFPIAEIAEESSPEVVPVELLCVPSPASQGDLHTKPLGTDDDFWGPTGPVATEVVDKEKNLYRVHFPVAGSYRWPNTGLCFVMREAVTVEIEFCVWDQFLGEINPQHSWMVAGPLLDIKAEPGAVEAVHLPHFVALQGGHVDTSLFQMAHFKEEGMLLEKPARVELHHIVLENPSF
Sequence of NACHT, LRR and PYD domains-containing protein 1 (Q9C000 1213-1473 limits assumed): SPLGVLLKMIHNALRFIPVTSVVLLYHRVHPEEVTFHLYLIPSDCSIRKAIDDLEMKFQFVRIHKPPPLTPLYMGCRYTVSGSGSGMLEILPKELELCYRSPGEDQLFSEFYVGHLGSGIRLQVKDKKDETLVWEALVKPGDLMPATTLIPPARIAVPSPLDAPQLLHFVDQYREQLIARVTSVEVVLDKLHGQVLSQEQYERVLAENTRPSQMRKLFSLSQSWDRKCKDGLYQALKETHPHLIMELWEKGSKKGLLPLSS

Saccharomyces cerevisiae = test: S. cerevisiae Caspase-1/ASC signal blockers IC50, NALP1 inhibitor project selectivity test (AID 488863); format: functional, organism-based
[27] = target: 5-hydroxytryptamine receptor 2A (Mus musculus, UniProt P35363); format: functional, cell-based;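 note: CHO-K1 cells with tagged receptor and beta-arrestin; agonist potency measured as compound-induced activation of the receptor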
Sequence of 5-hydroxytryptamine receptor 2A (P35363 whole entry): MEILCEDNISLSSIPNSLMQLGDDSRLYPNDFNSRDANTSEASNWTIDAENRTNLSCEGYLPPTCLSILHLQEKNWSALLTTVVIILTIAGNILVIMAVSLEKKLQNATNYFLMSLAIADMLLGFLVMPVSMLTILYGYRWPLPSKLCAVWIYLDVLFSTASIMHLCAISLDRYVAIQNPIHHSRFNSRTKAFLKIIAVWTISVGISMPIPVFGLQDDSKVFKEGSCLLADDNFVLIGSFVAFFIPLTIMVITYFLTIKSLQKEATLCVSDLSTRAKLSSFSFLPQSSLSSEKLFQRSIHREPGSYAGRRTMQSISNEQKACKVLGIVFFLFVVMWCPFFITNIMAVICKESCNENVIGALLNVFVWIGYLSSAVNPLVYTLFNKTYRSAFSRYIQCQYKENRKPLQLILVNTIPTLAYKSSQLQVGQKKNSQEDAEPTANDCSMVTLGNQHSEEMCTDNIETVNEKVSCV

Mu-type opioid receptor = Mu-type opioid receptor (Homo sapiens, UniProt P35372); format: functional, cell-based;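 note: U2OS cells with beta-arrestin recruitment to OPRM1 by beta-gal complementation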
Sequence of Mu-type opioid receptor (P35372 whole entry): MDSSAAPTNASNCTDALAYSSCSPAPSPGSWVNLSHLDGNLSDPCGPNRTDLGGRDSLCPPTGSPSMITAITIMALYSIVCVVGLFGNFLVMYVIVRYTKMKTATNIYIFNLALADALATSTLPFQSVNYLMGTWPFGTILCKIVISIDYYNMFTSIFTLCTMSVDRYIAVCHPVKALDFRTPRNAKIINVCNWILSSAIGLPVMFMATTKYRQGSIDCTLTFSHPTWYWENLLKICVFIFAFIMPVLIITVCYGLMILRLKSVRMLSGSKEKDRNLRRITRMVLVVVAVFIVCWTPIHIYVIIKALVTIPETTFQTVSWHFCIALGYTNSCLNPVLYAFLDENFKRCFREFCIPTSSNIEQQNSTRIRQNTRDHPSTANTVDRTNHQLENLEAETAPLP

SMILES: FC(F)(F)c1ccc(/N=c2\ssnc2Cl)cc1
- IC50 [1]: 32.7 µM (active)
- IC50 (Phosphomannomutase 2): > 100 µM (inactive)

SMILES: Oc1[nH]nc(-c2ccccc2)c1/C=N/c1ccc(Cl)cc1
- EC50 [2]: 2.11 µM (active)

SMILES: Sc1nnc(-c2cccc(Cl)c2)n1/N=C/c1ccc(-c2ccccc2Br)o1
- IC50 (SUMO-activating enzyme [3]): 12.6 µM (active)
- IC50 (SUMO-activating enzyme [4]): 28 µM (active)
- CC50 [5]: > 50 µM (active)

SMILES: c1ccc(-c2nc(N3CCNCC3)nc3ccccc23)cc1
- EC50 [2]: 0.3 µM (active)

SMILES: COc1ccc(/C=N/Nc2cc(C)nc3ccc(OC)cc23)c(OC)c1
- AC50 [6]: 10.8 µM (active)
- EC50 [7]: 8.87 µM (active)
- AC50 [8]: 9.83 µM (active)
- IC50 [9]: 6.39 µM (active)
- AC50 [10]: 4.32 µM (active)
- AC50 [11]: 8.34 µM (active)
- IC50 [12]: 28.1 µM (inactive)
- AC50 (HEK293): 3.43 µM (active)
- IC50 (Bcl-2-related protein A1): 11.4 µM (active)
- EC50 [13]: 8.01 µM (active)
- AC50 (INS1): 7.95 µM (active)
- EC50 [14]: 0.72 µM (active)
- IC50 [15]: 36.4 µM (active)
- IC50 [16]: > 66.6 µM (inactive)
- EC50 [17]: 7.61 µM (active)
- AC50 [18]: 38.7 µM (active)
- EC50 [19]: > 100 µM (inactive)
- CC50 [20]: 1.77 µM (active)
- EC50 [21]: 8.29 µM (active)
- AC50 [22]: 3.97 µM (active)
- IC50 [23]: 9.1 µM (active)
- IC50 [24]: 9.36 µM (active)
- CC50 [25]: 17.9 µM (active)

SMILES: CCOC(=O)C1CCCN(Cc2ccc(OCC)cc2)C1 (centres undefined)
- IC50 [26]: > 100 µM (inactive)
- IC50 (Saccharomyces cerevisiae): > 100 µM (inactive)

SMILES: COc1ccc(C)cc1NC(=O)c1ccc(CN2CCN(c3ccccc3)CC2)cc1
- IC50 [26]: > 100 µM (inactive)
- EC50 [27]: 76.1 µM (inactive)
- IC50 (Saccharomyces cerevisiae): > 100 µM (inactive)
- CC50 [5]: 21.4 µM (active)
- EC50 (Mu-type opioid receptor): 92.5 µM (inactive)

SMILES: COc1ccc(NC(=O)CN2C(=O)S/C(=C/c3cccn3-c3ccc(C(=O)O)cc3)C2=O)cc1
- IC50 (SUMO-activating enzyme [3]): 5.52 µM (active)
- IC50 (SUMO-activating enzyme [4]): 10.5 µM (active)
